Measurements from paper doi:10.1101/2024.08.13.607785v1 (biorxiv, 2024).
Like-named read-outs stand apart in the source and are kept apart here.

Experiments:
Assay in all cases: biochemical
Design in all cases: species or system human cell line lysate
[1] = target: LIM domain kinase 2 ; LIMK2 ; P53671 (Homo sapiens, UniProt P53671)
[2] = target: Tyrosine-protein kinase Fes/Fps ; FES ; P07332 (Homo sapiens, UniProt P07332)
[3] = target: Fructosamine-3-kinase ; FN3K ; Q9H479 (Homo sapiens, UniProt Q9H479)
[4] = target: Mitogen-activated protein kinase kinase kinase kinase 3 ; MAP4K3 ; Q8IVH8 (Homo sapiens, UniProt Q8IVH8)
[5] = target: Isoform GRK6B of G protein-coupled receptor kinase 6 ; GRK6 ; P43250-2 (Homo sapiens, UniProt P43250)
Sequence of Isoform GRK6B of G protein-coupled receptor kinase 6 ; GRK6 ; P43250-2 (P43250 whole entry, canonical isoform): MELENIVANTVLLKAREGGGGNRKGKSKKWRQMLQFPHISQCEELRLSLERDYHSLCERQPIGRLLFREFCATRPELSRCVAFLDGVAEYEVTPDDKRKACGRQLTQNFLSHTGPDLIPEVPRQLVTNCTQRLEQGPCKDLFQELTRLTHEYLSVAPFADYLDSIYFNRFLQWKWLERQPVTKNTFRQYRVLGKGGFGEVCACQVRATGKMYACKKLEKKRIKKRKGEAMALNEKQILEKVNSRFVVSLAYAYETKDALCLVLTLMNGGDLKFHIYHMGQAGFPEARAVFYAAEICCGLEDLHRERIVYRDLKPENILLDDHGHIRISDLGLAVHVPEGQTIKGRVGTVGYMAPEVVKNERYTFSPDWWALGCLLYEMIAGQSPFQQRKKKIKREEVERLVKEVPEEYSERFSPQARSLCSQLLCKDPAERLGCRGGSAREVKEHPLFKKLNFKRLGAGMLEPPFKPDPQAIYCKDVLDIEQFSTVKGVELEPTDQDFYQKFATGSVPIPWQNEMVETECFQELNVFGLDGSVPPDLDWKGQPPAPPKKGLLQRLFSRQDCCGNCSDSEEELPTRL

[6] = target: Tyrosine-protein kinase Fer ; FER ; P16591 (Homo sapiens, UniProt P16591)
[7] = target: Isoform IB of Tyrosine-protein kinase ABL1 ; ABL1 ; P00519-2 (Homo sapiens, UniProt P00519)
Sequence of Isoform IB of Tyrosine-protein kinase ABL1 ; ABL1 ; P00519-2 (P00519 whole entry, canonical isoform): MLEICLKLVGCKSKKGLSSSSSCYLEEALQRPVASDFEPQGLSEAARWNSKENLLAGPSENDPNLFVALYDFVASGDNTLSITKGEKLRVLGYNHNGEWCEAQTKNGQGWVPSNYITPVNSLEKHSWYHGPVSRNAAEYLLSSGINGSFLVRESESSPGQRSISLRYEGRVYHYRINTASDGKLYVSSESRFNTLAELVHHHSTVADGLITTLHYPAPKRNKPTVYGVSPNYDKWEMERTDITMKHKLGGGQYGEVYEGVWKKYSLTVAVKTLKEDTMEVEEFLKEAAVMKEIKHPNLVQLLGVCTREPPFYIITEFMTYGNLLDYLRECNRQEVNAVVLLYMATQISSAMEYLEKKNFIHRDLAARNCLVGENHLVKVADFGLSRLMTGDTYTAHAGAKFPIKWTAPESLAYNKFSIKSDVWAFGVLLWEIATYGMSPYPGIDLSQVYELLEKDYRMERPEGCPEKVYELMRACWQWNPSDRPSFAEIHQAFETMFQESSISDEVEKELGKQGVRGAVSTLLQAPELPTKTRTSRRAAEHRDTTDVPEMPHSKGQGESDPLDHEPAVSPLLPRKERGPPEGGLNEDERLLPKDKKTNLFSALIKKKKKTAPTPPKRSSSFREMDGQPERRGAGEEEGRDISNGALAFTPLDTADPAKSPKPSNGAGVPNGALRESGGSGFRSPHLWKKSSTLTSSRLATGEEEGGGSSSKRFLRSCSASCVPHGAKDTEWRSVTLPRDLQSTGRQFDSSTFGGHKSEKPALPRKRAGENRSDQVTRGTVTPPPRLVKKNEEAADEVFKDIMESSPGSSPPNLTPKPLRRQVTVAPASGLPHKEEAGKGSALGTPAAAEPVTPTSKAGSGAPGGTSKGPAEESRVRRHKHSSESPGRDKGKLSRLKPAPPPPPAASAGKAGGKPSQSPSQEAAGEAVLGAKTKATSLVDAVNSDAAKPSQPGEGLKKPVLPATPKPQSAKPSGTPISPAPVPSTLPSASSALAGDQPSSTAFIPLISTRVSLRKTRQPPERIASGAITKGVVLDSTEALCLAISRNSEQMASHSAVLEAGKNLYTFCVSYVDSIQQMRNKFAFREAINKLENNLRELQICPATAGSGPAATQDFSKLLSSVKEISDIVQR

[8] = target: Serine/threonine-protein kinase Nek3 ; NEK3 ; P51956 (Homo sapiens, UniProt P51956)
[9] = target: Ribosomal protein S6 kinase alpha-4 ; RPS6KA4 ; O75676 (Homo sapiens, UniProt O75676)
[10] = target: Wee1-like protein kinase ; WEE1 ; P30291 (Homo sapiens, UniProt P30291)
Sequence of Wee1-like protein kinase ; WEE1 ; P30291 (P30291 whole entry): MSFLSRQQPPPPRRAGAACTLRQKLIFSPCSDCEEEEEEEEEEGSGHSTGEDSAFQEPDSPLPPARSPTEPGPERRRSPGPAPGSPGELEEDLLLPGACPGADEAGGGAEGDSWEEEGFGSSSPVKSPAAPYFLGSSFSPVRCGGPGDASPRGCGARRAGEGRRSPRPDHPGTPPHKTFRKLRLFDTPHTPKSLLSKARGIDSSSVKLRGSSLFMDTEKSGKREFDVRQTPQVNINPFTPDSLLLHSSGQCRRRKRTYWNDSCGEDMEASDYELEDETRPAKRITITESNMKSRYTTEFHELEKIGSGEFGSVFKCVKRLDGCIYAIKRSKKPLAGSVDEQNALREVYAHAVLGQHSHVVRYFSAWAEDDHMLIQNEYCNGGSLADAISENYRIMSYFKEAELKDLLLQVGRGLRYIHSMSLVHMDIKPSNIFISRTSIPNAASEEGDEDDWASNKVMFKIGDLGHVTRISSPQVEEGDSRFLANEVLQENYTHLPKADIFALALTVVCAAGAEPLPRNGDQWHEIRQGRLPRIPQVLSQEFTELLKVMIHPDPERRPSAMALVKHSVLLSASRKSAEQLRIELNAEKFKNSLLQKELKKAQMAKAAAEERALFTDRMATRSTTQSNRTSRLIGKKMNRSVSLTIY

[11] = target: Dual specificity protein kinase CLK2 ; CLK2 ; P49760 (Homo sapiens, UniProt P49760)
[12] = target: Misshapen-like kinase 1 ; MINK1 ; Q8N4C8 (Homo sapiens, UniProt Q8N4C8)
[13] = target: Isoform Mxi2 of Mitogen-activated protein kinase 14 ; MAPK14 ; Q16539-3 (Homo sapiens, UniProt Q16539)
Sequence of Isoform Mxi2 of Mitogen-activated protein kinase 14 ; MAPK14 ; Q16539-3 (Q16539 whole entry, canonical isoform): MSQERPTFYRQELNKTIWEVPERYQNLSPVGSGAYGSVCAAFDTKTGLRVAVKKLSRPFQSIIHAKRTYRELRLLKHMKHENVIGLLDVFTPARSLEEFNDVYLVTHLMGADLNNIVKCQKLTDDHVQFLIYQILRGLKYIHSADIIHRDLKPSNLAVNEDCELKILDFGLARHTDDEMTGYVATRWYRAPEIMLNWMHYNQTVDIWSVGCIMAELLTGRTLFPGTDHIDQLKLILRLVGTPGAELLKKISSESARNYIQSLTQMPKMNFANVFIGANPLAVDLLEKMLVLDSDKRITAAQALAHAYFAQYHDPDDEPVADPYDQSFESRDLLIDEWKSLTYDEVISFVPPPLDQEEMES

[14] = target: Vascular endothelial growth factor receptor 3 ; FLT4 ; P35916 (Homo sapiens, UniProt P35916)
Sequence of Vascular endothelial growth factor receptor 3 ; FLT4 ; P35916 (P35916 whole entry): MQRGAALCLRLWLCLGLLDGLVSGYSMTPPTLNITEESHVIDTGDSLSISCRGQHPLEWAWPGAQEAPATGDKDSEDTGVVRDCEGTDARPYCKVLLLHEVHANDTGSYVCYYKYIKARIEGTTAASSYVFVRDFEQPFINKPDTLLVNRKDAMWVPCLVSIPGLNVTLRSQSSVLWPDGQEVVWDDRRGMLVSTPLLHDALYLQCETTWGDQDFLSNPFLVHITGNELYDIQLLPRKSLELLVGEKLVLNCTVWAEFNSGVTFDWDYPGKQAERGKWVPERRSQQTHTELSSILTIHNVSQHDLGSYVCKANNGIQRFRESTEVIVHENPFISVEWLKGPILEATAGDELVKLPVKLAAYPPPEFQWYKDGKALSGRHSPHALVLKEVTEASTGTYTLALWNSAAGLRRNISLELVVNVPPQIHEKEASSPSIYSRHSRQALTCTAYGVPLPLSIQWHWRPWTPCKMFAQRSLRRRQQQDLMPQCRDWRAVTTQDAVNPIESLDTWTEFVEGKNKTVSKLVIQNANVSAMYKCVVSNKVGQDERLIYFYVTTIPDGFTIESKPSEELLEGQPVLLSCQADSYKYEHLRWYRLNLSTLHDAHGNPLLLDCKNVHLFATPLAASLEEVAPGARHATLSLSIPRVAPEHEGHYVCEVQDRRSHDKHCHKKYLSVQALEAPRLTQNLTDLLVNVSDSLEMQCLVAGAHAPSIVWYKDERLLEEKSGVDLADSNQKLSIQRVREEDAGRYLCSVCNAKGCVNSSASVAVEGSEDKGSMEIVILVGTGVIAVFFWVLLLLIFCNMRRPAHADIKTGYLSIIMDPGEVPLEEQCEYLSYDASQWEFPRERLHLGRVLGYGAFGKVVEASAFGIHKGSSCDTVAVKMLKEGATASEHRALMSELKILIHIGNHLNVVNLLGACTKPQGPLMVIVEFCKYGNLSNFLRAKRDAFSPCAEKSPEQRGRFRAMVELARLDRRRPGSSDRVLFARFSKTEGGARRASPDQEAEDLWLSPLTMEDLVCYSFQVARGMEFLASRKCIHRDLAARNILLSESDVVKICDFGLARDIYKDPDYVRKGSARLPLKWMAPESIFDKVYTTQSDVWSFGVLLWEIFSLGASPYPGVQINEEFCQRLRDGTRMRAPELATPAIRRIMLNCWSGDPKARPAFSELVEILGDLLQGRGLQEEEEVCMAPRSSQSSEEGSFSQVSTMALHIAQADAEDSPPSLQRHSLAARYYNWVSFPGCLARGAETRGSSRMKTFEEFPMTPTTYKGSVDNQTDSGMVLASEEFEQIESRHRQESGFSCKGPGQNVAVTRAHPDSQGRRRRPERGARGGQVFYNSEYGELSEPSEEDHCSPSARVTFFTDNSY

[15] = target: T1, Dual specificity mitogen-activated protein kinase kinase 5 ; MAP2K5 ; Q13163 (Homo sapiens, UniProt Q13163)
T1 sequence (Q13163 1-448): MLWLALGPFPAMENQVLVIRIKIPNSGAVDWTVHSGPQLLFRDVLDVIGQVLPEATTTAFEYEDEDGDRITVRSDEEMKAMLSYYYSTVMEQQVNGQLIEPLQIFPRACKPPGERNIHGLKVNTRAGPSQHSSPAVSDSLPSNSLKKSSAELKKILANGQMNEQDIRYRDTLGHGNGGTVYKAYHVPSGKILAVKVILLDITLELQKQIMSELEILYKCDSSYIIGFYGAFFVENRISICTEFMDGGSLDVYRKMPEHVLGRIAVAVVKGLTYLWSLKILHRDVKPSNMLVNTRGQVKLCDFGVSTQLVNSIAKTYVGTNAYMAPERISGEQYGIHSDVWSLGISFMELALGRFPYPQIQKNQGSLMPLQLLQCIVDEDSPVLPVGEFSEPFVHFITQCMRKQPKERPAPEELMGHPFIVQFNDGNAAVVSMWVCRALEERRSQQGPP

[16] = target: T2, Tyrosine-protein kinase Tec ; TEC ; P42680 (Homo sapiens, UniProt P42680)
T2 sequence (P42680 1-631): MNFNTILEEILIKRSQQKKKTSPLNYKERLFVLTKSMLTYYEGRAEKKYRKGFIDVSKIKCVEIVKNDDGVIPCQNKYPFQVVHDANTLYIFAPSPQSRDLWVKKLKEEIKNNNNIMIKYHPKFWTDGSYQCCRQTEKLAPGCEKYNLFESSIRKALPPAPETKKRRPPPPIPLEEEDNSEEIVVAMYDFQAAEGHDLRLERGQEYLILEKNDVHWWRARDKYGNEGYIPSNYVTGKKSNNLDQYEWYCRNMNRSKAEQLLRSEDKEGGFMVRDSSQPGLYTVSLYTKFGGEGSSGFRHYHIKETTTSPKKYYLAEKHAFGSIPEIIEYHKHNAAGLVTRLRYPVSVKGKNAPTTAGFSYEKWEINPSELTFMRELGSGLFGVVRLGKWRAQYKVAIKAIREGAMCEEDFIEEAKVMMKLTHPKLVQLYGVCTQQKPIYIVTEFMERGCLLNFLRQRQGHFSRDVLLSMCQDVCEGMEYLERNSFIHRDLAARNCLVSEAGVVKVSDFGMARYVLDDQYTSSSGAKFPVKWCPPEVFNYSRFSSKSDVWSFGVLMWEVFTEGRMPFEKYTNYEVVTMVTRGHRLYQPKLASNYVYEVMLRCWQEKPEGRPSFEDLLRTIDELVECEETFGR

[17] = read-out: BAY-1143572 (10 µM) / %Intensity relative to DMSO
[18] = read-out: BAY-1251152 (10 µM) / %Intensity relative to DMSO

Sequence of Tyrosine-protein kinase Fes/Fps ; FES ; P07332 (P07332 whole entry, one chain of several): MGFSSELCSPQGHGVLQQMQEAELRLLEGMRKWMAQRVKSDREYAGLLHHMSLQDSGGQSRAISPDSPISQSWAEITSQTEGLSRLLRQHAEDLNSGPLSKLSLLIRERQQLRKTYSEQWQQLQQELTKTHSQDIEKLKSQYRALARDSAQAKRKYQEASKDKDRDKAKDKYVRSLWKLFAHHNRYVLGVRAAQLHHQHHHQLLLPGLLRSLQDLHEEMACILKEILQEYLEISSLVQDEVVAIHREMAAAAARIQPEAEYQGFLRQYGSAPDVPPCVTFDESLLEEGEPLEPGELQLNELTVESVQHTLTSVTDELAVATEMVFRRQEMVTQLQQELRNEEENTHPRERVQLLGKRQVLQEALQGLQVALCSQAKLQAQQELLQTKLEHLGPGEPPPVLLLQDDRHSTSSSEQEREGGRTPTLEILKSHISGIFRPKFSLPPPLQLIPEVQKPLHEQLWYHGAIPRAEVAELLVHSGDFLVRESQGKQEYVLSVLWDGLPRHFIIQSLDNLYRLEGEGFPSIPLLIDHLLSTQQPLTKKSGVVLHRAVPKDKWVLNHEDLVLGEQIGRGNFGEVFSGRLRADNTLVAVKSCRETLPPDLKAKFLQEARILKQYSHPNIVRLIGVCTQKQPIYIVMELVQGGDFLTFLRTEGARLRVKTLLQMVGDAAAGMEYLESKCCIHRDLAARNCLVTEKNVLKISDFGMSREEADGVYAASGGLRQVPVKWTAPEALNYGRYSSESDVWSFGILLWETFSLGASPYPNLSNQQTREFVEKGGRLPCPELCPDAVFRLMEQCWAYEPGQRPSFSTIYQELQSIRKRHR

## COc1cc(F)ccc1-c1ncnc(Nc2cccc(C[S@](C)(=N)=O)c2)n1 [BAY-1143572]
[1]; [17]
  remaining activity at 10 µM: 78%
[2]; [17]
  remaining activity at 10 µM: 102%
[3]; [17]
  remaining activity at 10 µM: 114%
[4]; [17]
  remaining activity at 10 µM: 109%
[5]; [17]
  remaining activity at 10 µM: 137%
[6]; [17]
  remaining activity at 10 µM: 112%
[7]; [17]
  remaining activity at 10 µM: 67.4%
[8]; [17]
  remaining activity at 10 µM: 88.7%
[9]; [17]
  remaining activity at 10 µM: 119%
[10]; [17]
  remaining activity at 10 µM: 101%
[11]; [17]
  remaining activity at 10 µM: 139%
[12]; [17]
  remaining activity at 10 µM: 72.9%
[13]; [17]
  remaining activity at 10 µM: 128%
[14]; [17]
  remaining activity at 10 µM: 115%
[15]; [17]
  remaining activity at 10 µM: 102%
[16]; [17]
  remaining activity at 10 µM: 89.2%

## COc1cc(F)ccc1-c1cc(Nc2cc(CS(C)(=N)=O)ccn2)ncc1F (centres unmarked) [BAY-1251152]
[1]; [18]
  remaining activity at 10 µM: 109%
[2]; [18]
  remaining activity at 10 µM: 96.1%
[3]; [18]
  remaining activity at 10 µM: 106%
[4]; [18]
  remaining activity at 10 µM: 106%
[5]; [18]
  remaining activity at 10 µM: 111%
[6]; [18]
  remaining activity at 10 µM: 103%
[7]; [18]
  remaining activity at 10 µM: 83.2%
[8]; [18]
  remaining activity at 10 µM: 112%
[9]; [18]
  remaining activity at 10 µM: 104%
[10]; [18]
  remaining activity at 10 µM: 102%
[11]; [18]
  remaining activity at 10 µM: 112%
[12]; [18]
  remaining activity at 10 µM: 54.1%
[13]; [18]
  remaining activity at 10 µM: 119%
[14]; [18]
  remaining activity at 10 µM: 104%
[15]; [18]
  remaining activity at 10 µM: 101%
[16]; [18]
  remaining activity at 10 µM: 104%
